Data taken from publication PMC8910697, “Development of VPC-70619, a Small-Molecule N-Myc Inhibitor as a Potential Therapy for Neuroendocrine Prostate Cancer” (International Journal of Molecular Sciences, 2022).
pIC50: −log10 of the molar value. Entries after “also recorded” stand apart in the source; their conditions may differ. Read-outs that look alike come from different tables or passages of the source.

Legend:
[1] = Pharmacokinetics after IP and PO dosing; assay type: in vivo, male Balb/c mice; details: 10 mg/kg; for half-life / Cmax: male, Balb/c, mouse, plasma; for Cmax: 70551 in 75:25 PG/PEG 400, 70619 in 20:80 Kolliphor EL
Procedure: In order to characterize VPC-70619 as a drug candidate against N-myc, its pharmacokinetic (PK) characteristics were evaluated in Balb/c mice following intraperitoneal (IP) and peroral (PO) administrations. As presented in Figure 5, we determined the PK properties of VPC-70619 and compared it to the parental molecule, VPC-70551. […] The clearance of 70551 for PO delivery was extremely slow, and we could not determine the T1/2 in the experimental conditions used for this assay. […] Therefore, VPC-70619 was deemed to have appropriate efficacy in vivo, and a better pharmacokinetic profile due to higher bioavailability for both oral and intraperitoneal administration.
Bienta Enamine Biology Services (Kyiv, Ukraine) conducted PK studies according to the Enamine PK study protocols and Institutional Animal Care and Use Guidelines. The PK studies were reviewed and approved by the Bienta Animal Care and Use Committee (BACUC) under the project identification codes PK-VPC-112618 (approved 17 December 2018) and PK-VPC-101119 (approved 21 October 2019), for VPC-70551 and […], respectively. Evaluation of 70619 and 70551 was conducted in male Balb/c mice through intraperitoneal (IP) and peroral (PO) administration. Measurements were taken at six time points: 5, 15, 60, 120, 240, and 360 min for IP; 15, 30, 60, 120, 240, and 480 min for PO. Four mice were included in each treatment group for each time point; one mouse each for IP and PO was included as a control. Initial target administration for both IP and PO was 10 mg/kg dose level, 2 mg/mL dose concentration, and 5 mL/kg dose volume. Concentration of the compounds was evaluated in the plasma samples using an LC-MS/MS system.

[2] = test system: N-Myc-Max binding to DNA E-box; experiment: Biolayer interferometry (BLI), N-Myc-Max binding to biotinylated E-box DNA; assay type: biochemical; details: BLI, 0, 50, 100, 200 µM
From the text: (§1) To confirm that 70619 could disrupt the binding of N-Myc-Max DBD to DNA, we performed a bio-layer interferometry (BLI) assay where we immobilized biotinylated E-box sequence on streptavidin sensors, and we evaluated recombinant N-Myc-Max binding to the DNA in the presence of increasing concentrations of VPC-70619. […] We observed a similar number of interactions when comparing the ratio of signal per nuclei in the presence or absence of the compound.
The bHLHLZ domain of N-Myc (amino acids 309–394) and Max (amino acids 12–93) protein sequences were cloned into pETDuet with an N-terminal 6×His. pETDuet-His-NMyc-Max was transformed and expressed in E. coli BL21 and induced with 0.5 mM isopropyl-β-D-thiogalactopyranoside (IPTG) at 16 °C overnight. The cultures were lysed by sonication and combined for purification by immobilized metal ion chromatography (IMAC) with nickel-nitrilotriacetic acid (Ni-NTA) resin. The bound proteins were eluted from the column with 20 mM Tris, pH = 8, 500 mM NaCl, 5% glycerol, 300 mM imidazole, 5 mM βMe, and 0.1 mM PMSF. Size exclusion chromatography with Superdex 75 was used to increase the purity of the N-Myc-Max protein sample. The purified protein complex was used in subsequent BLI and MST experiments.
Biotinylated-duplex DNA (Forward: 5′ Biotin-[…], Reverse: […]) was bound to the super-streptavidin (SSA) ForteBio Sensor in the assay buffer [20 mM Tris pH = 8, 150 mM NaCl, 5% glycerol, and 0.2 mM TCEP]. The protein solution was mixed with the serially diluted compound (70619) to a final concentration of 0.1 mg/mL of protein and 200 μM, 100 μM, and 50 μM for the compound. Sample containing N-Myc-Max protein alone was used as a control.

[3] = molecular target: T1, N-Myc-Max heterodimer (Homo sapiens, UniProt P04198+P61244); experiment: Proximity ligation assay (PLA) in LNCaP-NMYC cells; assay type: cell-based; details: 10 µM, 72 h
T1 construct: expressed in transfected cells; host or cells: LNCaP-NMYC cells (gift from David Rickman)
Procedure: as §1
LNCaP-NMYC cells were seeded on coverslips at a density of 10^5 cells per well of a 6-well plate. After incubation for 24 h the cells were treated with 10 μM of either 10074-G5 or 70619 for 72 h. The coverslips were fixed with methanol:acetone (3:1) and incubated with primary antibodies n-Myc Antibody (NMYC-1) (Novus Biologicals NB200-109) (Littleton, CO, USA) and MAX Antibody (C-17) (Santa Cruz sc-197) (Dallas, TX, USA) overnight at 4 °C. PLA was conducted using the Duolink In Situ Detection Reagents Red kit (Sigma DUO92008) according to the manufacturer’s protocol. The coverslips were then mounted on slides with VECTASHIELD mounting media with DAPI, and images were taken on ZEISS 780 confocal microscope at 40× magnification.

[4] = test system: NCI-H660 cells; experiment: Cell viability (CellTiter-Glo), NCI-H660; assay type: cell-based
Procedure: (§2) Viability of N-Myc positive (IMR32and NCI-H660) and negative (HO15.19) cells were determined using the CellTiter-Glo Luminescent Cell Viability Assay (Promega cat. G7570) (Madison, WI, USA). Cells were seeded into a 96-well white plate with a clear bottom: 10,000 cells per well for the IMR32 cells cultured in EMEM supplemented with 10% FBS, 2000 HO15.19 cells per well in Eagle’s minimum essential medium (EMEM) supplemented with 10% FBS, and 2000 cells per well for the NCI-H660 neuroendocrine cells cultured in RPMI supplemented 5% FBS, 1% Insulin-Transferrin-Selenium (Thermo Fisher, 41400-045), 10nM b-estradiol (Sigma, E8875), 10nM hydrocortisone (Sigma H0888) and 1% matrigel. Following 24 h incubation, the cells were treated with serial dilutions of the derivatives along with the respective parental compound starting at 25 μM for 72 h. Cell Titer Glo was added to each well at a ratio of 1:1 and incubated on a shaker at RT for 2 min. Luminescence and IC50 was measured with the TECAN InfiniteM200 plate reader (Männedorf, Switzerland).

[5] = test system: IMR32 cells; experiment: Cell viability (CellTiter-Glo), IMR32; assay type: cell-based; details: Homo sapiens, IMR-32
Procedure: The 54 compounds were tested at 10 µM for their inhibition of the IMR32 human neuroblastoma cell line, in which the MYCN gene is amplified and actively expressed (Table 3). HO15.19 cell line (Myc-negative) was used in parallel as a compound specificity control.
as §2

[6] = test system: HO15.19 cells; experiment: Cell viability counter-screen (CellTiter-Glo), Myc-negative HO15.19; assay type: cell-based
In short: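 IMR32 cells (10,000/well) and HO15.19 cells (2000/well), both in EMEM with 10% FBS, were seeded 24 h before 72 h exposure to serial compound dilutions starting at 25 μM. Viability was read by CellTiter-Glo luminescence to give IC50. Single-point testing used 10 µM.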

T1 sequence (P04198 whole entry): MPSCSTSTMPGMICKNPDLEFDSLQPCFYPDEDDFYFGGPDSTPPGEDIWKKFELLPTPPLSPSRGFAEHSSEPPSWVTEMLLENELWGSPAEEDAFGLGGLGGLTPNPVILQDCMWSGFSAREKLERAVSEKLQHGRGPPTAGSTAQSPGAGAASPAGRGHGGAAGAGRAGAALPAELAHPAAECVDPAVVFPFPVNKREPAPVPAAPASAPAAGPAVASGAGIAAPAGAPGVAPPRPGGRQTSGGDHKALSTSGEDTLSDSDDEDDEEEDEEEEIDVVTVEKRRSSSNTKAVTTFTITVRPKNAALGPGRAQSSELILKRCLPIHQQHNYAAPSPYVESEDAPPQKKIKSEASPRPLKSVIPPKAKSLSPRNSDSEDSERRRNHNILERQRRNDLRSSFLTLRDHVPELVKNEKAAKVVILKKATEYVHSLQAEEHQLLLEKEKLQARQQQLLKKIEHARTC
T1 sequence (P61244 whole entry): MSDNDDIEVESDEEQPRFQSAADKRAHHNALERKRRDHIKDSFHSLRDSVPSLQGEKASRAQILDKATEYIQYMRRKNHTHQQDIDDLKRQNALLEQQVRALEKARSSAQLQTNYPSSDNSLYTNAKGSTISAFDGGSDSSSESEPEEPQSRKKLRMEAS

N#Cc1ccc(NNC(=O)c2ccc(C#N)c(Cl)c2)c(C(F)(F)F)c1 [compound 70619]
half-life ([1]; ip, read-out: plasma half-life (T1/2) IP): 5.5 h
half-life ([1]; po, read-out: plasma half-life (T1/2) PO): 7.12 h
Cmax ([1]; IP, read-out: Cmax IP): 29500 ng/mL
Cmax ([1]; PO, read-out: Cmax PO): 24000 ng/mL
adverse effects / signs of toxicity in PK animals ([1]; single dose IP or PO): No signs of toxicity
disruption of DNA binding to (N-)Myc-Max (in words) [2]: disrupt DNA binding at 100 µM
disruption of DNA binding to (N-)Myc-Max (in words) ([2]; listed as VPC-70619): effective at blocking N-Myc-Max binding to DNA in a dose-dependent manner
effect on N-Myc-Max heterodimer interactions (in words) [3]: does not disrupt Myc-Max complexes
effect on N-Myc-Max heterodimer interactions (in words) ([3]; listed as VPC-70619): does not disrupt the N-Myc-Max heterodimer formation
pIC50 ([4]; NCI-H660, 72 h, read-out: IC50 cell proliferation in NCI-H660): 5.15
inhibition of NCI-H660 (in words) ([4]; NEPC in vitro model): good inhibition
inhibition at 10 µM [5]: 99.4%
% Inhibition in HO15.19 (10 µM) ([6]; 10 µM, Myc-negative specificity control): 14.1%
inhibition at 10 µM ([6]; Rattus norvegicus, HO15.19, 10 µM, Myc-negative specificity control): 14%
cytotoxicity in Myc-negative HO15.19 (in words) ([6]; counter-screen): did not report any strong inhibitory effects; also recorded: minimal cytotoxicity
